# What was measured:
# P variotii 22319 [1] = assay: MIC determination (NCCLS broth method); assay type: cell-based, Paecillomyces variotii
# From the text: (§1) The in-vitro evaluation of the antifungal activity of the compounds can be performed by determining the minimum inhibitory concentration (MIC) as shown in Table 1 which is the concentration of the test compound in Rosewell Park Memorial Institute (RPMI) 1640 liquid medium buffered with 3-(Morpholino)propanesulphonic acid (MOPS) to pH 7, at which there is significant inhibition of the particular fungi. In practice the National Committee for Clinical Laboratory Standard (NCCLS) M27A document for Candida and Cryptococcus and M38P for Aspergillus was used to determine the MIC against yeast and filamentous fungi with suitable modifications for dermatophytes to other filamentous fungi. Three quality control strains were included each time the MIC were determined and readings recorded only when the Quality Control results fell into the acceptable range. After MIC results had been recorded, 100 μl from each of the well showing no growth was spread over Sabouraud Dextrose Agar (SDA) to determine the minimum fungicidal concentration (MFC) as shown in Table 2.
# C neoformans I = assay: MIC determination (NCCLS broth method); assay type: cell-based, Cryptococcus neoformans
# From the text: as §1
# C neoformans M-106 = assay: MIC determination (NCCLS broth method); assay type: cell-based, Cryptococcus neoformans
# From the text: as §1
# A fumigatus 1008 [2] = assay: MIC determination (NCCLS broth method); assay type: cell-based, Aspergillus fumigatus
# From the text: as §1
# A fumigatus I - 1011 = assay: MIC determination (NCCLS broth method); assay type: cell-based, Aspergillus fumigatus
# From the text: as §1
# A fumigatus II - 1012 = assay: MIC determination (NCCLS broth method); assay type: cell-based, Aspergillus fumigatus
# From the text: as §1
# A fumigatus J - 1032 = assay: MIC determination (NCCLS broth method); assay type: cell-based, Aspergillus fumigatus
# From the text: as §1
# A fumigatus K - 1033 = assay: MIC determination (NCCLS broth method); assay type: cell-based, Aspergillus fumigatus
# From the text: as §1
# A fumigatus L - 1034 = assay: MIC determination (NCCLS broth method); assay type: cell-based, Aspergillus fumigatus
# From the text: as §1
# A fumigatus PGI - 1023 = assay: MIC determination (NCCLS broth method); assay type: cell-based, Aspergillus fumigatus
# From the text: as §1
# A fumigatus SI-1 - 1019 [3] = assay: MIC determination (NCCLS broth method); assay type: cell-based, Aspergillus fumigatus
# From the text: as §1
# Penicilliuim 2306 = assay: MIC determination (NCCLS broth method); assay type: cell-based, Penicillium
# From the text: as §1
# P variotii 22319 [4] = assay: MFC determination (subculture on Sabouraud Dextrose Agar); assay type: cell-based, Paecillomyces variotii
# From the text: as §1
# A fumigatus 1008 [5] = assay: as above; assay type: cell-based, Aspergillus fumigatus
# From the text: as §1
# A fumigatus SI-1 - 1019 [6] = assay: as above; assay type: cell-based, Aspergillus fumigatus
# From the text: as §1
# C parapsilosis 22019 = assay: as above; assay type: cell-based
# From the text: as §1
# Mucor (Ceylon) = assay: as above; assay type: cell-based
# From the text: as §1
# All Candida isolates = assay: Comparative in vitro MIC, isolate panel; assay type: cell-based
# From the text: as §1
# (§2) A comparative in vitro and in vivo biologically activity data of the compound of our invention, 2-{[1R,2R]-2-(2,4-Difluorophenyl)-2-hydroxy-1-methyl-3-(1H-1,2,4-triazole-1-yl)propyl}-4-[(2′,2′,3′,3′-tetrafluoropropoxyphenyl)-3-(2H,4H)-1,2,4-thiotriazolone (Compound No. 3) with 2-[(1R,2R)-2-(2,4-difluorophenyl)-2-hydroxy-1-methyl-3-(1H-1,2,4-triazol-1-yl)propyl]-4-(2′,2′,3′,3′-tetraflouropropoxyphenyl)-3(2H,4H)-1,2,4-triazolone (TAK 187) and standard antifungal pharmaceuticals is given below: […]
# All Filamentous isolates = assay: Comparative in vitro MIC, isolate panel; assay type: cell-based
# From the text: as §1, §2
# All fungal pathogens = assay: Comparative in vitro MIC, isolate panel; assay type: cell-based
# From the text: as §1, §2
# [7] = test system: Aspergillus fumigatus isolates; assay: Comparative in vitro MIC, isolate panel; assay type: cell-based
# From the text: as §1, §2
# Fusarium spp. isolates = assay: Comparative in vitro MIC, isolate panel; assay type: cell-based
# From the text: as §1, §2
# [8] = test system: Penicillium spp. isolates; assay: Comparative in vitro MIC, isolate panel; assay type: cell-based
# From the text: as §1, §2
# Rhizoupus spp. isolates = assay: Comparative in vitro MIC, isolate panel; assay type: cell-based
# From the text: as §1, §2
compound,measurement,setting,value
"C[C@@H](n1ncn(-c2ccc(N3CCN(c4ccc(Cl)cc4)CC3)cc2)c1=S)[C@](O)(Cn1cncn1)c1ccc(F)cc1F [Compound No. 1, 2-{[1R,2R]-2-(2,4-Difluorophenyl)-2-hydroxy-1-methyl-3-(1H-1,2,4-triazole-1-yl)propyl}-4-{4-[4-(4-chlorophenyl)-1-piperizinyl]phenyl}-3-(2H,4H)-1,2,4-thiotriazolone]",Minimum Inhibitory Concentration (MIC),P variotii 22319 [1],0.004 µg/mL
same,Minimum Inhibitory Concentration (MIC),C neoformans I,0.008 µg/mL
same,Minimum Inhibitory Concentration (MIC),C neoformans M-106,0.008 µg/mL
same,Minimum Inhibitory Concentration (MIC),A fumigatus 1008 [2],0.016 µg/mL
same,Minimum Inhibitory Concentration (MIC),A fumigatus I - 1011,0.016 µg/mL
same,Minimum Inhibitory Concentration (MIC),A fumigatus II - 1012,0.008 µg/mL
same,Minimum Inhibitory Concentration (MIC),A fumigatus J - 1032,0.008 µg/mL
same,Minimum Inhibitory Concentration (MIC),A fumigatus K - 1033,0.008 µg/mL
same,Minimum Inhibitory Concentration (MIC),A fumigatus L - 1034,0.008 µg/mL
same,Minimum Inhibitory Concentration (MIC),A fumigatus PGI - 1023,0.016 µg/mL
same,Minimum Inhibitory Concentration (MIC),A fumigatus SI-1 - 1019 [3],0.016 µg/mL
same,Minimum Inhibitory Concentration (MIC),Penicilliuim 2306,0.016 µg/mL
same,Minimum Fungicidal Concentration (MFC),P variotii 22319 [4],0.06 µg/mL
same,Minimum Fungicidal Concentration (MFC),A fumigatus 1008 [5],0.03 µg/mL
same,Minimum Fungicidal Concentration (MFC),A fumigatus SI-1 - 1019 [6],0.03 µg/mL
same,Minimum Fungicidal Concentration (MFC),C parapsilosis 22019,0.016 µg/mL
same,Minimum Fungicidal Concentration (MFC),Mucor (Ceylon),1 µg/mL
"C[C@@H]1[C@H](O)[C@@H](C)/C=C/C=C/C=C/C=C/C=C/C=C/C=C/[C@H](O[C@@H]2O[C@H](C)[C@@H](O)[C@H](N)[C@@H]2O)C[C@@H]2O[C@](O)(C[C@@H](O)C[C@@H](O)[C@H](O)CC[C@@H](O)C[C@@H](O)CC(=O)O[C@H]1C)C[C@H](O)[C@H]2C(=O)O [Amphotericin-B, Amphotericin B]",Minimum Inhibitory Concentration (MIC),P variotii 22319 [1],0.03 µg/mL
same,Minimum Inhibitory Concentration (MIC),C neoformans I,0.06 µg/mL
same,Minimum Inhibitory Concentration (MIC),C neoformans M-106,0.03 µg/mL
same,Minimum Inhibitory Concentration (MIC),A fumigatus 1008 [2],0.25 µg/mL
same,Minimum Inhibitory Concentration (MIC),A fumigatus I - 1011,0.25 µg/mL
same,Minimum Inhibitory Concentration (MIC),A fumigatus II - 1012,0.125 µg/mL
same,Minimum Inhibitory Concentration (MIC),A fumigatus J - 1032,0.25 µg/mL
same,Minimum Inhibitory Concentration (MIC),A fumigatus K - 1033,0.125 µg/mL
same,Minimum Inhibitory Concentration (MIC),A fumigatus L - 1034,0.25 µg/mL
same,Minimum Inhibitory Concentration (MIC),A fumigatus PGI - 1023,0.125 µg/mL
same,Minimum Inhibitory Concentration (MIC),A fumigatus SI-1 - 1019 [3],0.5 µg/mL
same,Minimum Inhibitory Concentration (MIC),Penicilliuim 2306,0.25 µg/mL
same,Minimum Fungicidal Concentration (MFC),P variotii 22319 [4],2 µg/mL
same,Minimum Fungicidal Concentration (MFC),A fumigatus 1008 [5],1 µg/mL
same,Minimum Fungicidal Concentration (MFC),A fumigatus SI-1 - 1019 [6],2 µg/mL
same,Minimum Fungicidal Concentration (MFC),C parapsilosis 22019,32 µg/mL
same,Minimum Fungicidal Concentration (MFC),Mucor (Ceylon),1 µg/mL
same,MIC50,All Candida isolates,0.25 µg/mL
same,MIC90,All Candida isolates,0.25 µg/mL
same,MIC G.M.,All Candida isolates,0.22 µg/mL
same,MIC50,All Filamentous isolates,0.25 µg/mL
same,MIC90,All Filamentous isolates,0.5 µg/mL
same,MIC G.M.,All Filamentous isolates,0.22 µg/mL
same,MIC50,All fungal pathogens,0.25 µg/mL
same,MIC90,All fungal pathogens,0.5 µg/mL
same,MIC G.M.,All fungal pathogens,0.21 µg/mL
same,MIC50,[7],0.25 µg/mL
same,MIC90,[7],0.5 µg/mL
same,MIC G.M.,[7],0.27 µg/mL
same,MIC50,Fusarium spp. isolates,0.5 µg/mL
same,MIC90,Fusarium spp. isolates,2 µg/mL
same,MIC G.M.,Fusarium spp. isolates,0.841 µg/mL
same,MIC50,[8],0.25 µg/mL
same,MIC90,[8],0.25 µg/mL
same,MIC G.M.,[8],0.144 µg/mL
same,MIC50,Rhizoupus spp. isolates,0.125 µg/mL
same,MIC90,Rhizoupus spp. isolates,0.25 µg/mL
same,MIC G.M.,Rhizoupus spp. isolates,0.177 µg/mL

# Source: US6710049B2, “Azole compounds as anti-fungal agents” (Ranbaxy Laboratories Limited, priority 2000, dated 2004)
